From ChEMBL document CHEMBL5653631, “A Potent and Selective ULK1 Inhibitor Suppresses Autophagy and Sensitizes Cancer Cells to Nutrient Stress” (iScience, 2018)

Columns and labels:
[1] = target: Dual specificity protein kinase CLK4 (Homo sapiens) (UniProt Q9HAZ1); test: Inhibition of human recombinant CLK4 at 40 nM in presence of ATP by radiometric assay relative to control
[2] = target: T1, Mitogen-activated protein kinase kinase kinase 3 (Homo sapiens) (UniProt Q99759); test: Inhibition of human recombinant MAP3K3 at 40 nM in presence of ATP by radiometric assay relative to control
T1 sequence (whole entry): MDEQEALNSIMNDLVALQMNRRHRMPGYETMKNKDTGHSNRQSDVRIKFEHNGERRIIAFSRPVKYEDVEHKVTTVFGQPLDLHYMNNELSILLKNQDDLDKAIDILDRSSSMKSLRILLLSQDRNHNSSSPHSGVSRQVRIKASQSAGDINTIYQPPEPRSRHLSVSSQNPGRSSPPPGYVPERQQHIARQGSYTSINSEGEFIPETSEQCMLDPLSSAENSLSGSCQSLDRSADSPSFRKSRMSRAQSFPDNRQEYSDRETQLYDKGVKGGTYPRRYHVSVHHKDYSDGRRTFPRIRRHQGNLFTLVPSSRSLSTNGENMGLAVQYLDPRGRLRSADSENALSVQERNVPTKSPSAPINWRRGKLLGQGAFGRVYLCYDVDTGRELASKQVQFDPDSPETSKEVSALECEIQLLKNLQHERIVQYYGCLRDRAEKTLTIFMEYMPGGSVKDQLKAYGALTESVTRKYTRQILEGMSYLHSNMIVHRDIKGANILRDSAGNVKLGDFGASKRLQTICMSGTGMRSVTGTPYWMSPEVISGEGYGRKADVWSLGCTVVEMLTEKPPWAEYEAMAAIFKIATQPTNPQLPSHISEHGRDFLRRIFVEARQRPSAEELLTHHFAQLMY

[3] = target: Serine/threonine-protein kinase Nek6 (Homo sapiens) (UniProt Q9HC98); test: Inhibition of human recombinant NEK6 at 40 nM related to control ULK1
[4] = target: Serine/threonine-protein kinase NIM1 (Homo sapiens) (UniProt Q8IY84); test: Inhibition of human recombinant NIM1 at 40 nM related to control ULK1
[5] = target: Serine/threonine-protein kinase SIK1 (Homo sapiens) (UniProt P57059); test: Inhibition of human recombinant SIK at 40 nM related to control ULK1
[6] = target: High affinity nerve growth factor receptor (Homo sapiens) (UniProt P04629); test: Inhibition of human recombinant TRKA at 40 nM related to control ULK1
[7] = target: Interferon-induced, double-stranded RNA-activated protein kinase (Homo sapiens) (UniProt P19525); test: Inhibition of human recombinant PKR at 500 nM in presence of ATP by radiometric assay relative to control
[8] = target: TGF-beta receptor type-2 (Homo sapiens) (UniProt P37173); test: Inhibition of human recombinant TGFbR2 at 500 nM in presence of ATP by radiometric assay relative to control
[9] = target: Wee1-like protein kinase 2 (Homo sapiens) (UniProt P0C1S8); test: Inhibition of human recombinant Wee1B at 500 nM in presence of ATP by radiometric assay relative to control
[10] = target: Serine/threonine-protein kinase WNK1 (Homo sapiens) (UniProt Q9H4A3); test: Inhibition of human recombinant Wnk1 at 500 nM in presence of ATP by radiometric assay relative to control
[11] = target: Dual specificity mitogen-activated protein kinase kinase 1 (Homo sapiens) (UniProt Q02750); test: Inhibition of human recombinant MAP2K1 at 500 nM related to control ULK1
[12] = target: T2, Serine/threonine-protein kinase Nek3 (Homo sapiens) (UniProt P51956); test: Inhibition of human recombinant NEK3 at 500 nM related to control ULK1
T2 sequence (whole entry): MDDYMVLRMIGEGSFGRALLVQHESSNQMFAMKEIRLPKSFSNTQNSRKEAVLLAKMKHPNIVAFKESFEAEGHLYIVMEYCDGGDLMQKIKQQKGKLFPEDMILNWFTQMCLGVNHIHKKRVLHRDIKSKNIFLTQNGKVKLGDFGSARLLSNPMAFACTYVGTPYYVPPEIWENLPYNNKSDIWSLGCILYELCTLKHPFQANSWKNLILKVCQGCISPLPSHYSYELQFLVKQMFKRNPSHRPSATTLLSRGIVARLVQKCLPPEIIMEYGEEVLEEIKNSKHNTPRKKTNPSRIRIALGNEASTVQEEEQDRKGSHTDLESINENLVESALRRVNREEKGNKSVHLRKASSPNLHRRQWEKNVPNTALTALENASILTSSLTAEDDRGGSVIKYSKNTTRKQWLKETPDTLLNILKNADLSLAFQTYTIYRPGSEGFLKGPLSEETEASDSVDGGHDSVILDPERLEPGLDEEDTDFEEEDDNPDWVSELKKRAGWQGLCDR

[13] = target: Rhodopsin kinase GRK7 (Homo sapiens) (UniProt Q8WTQ7); test: Inhibition of human recombinant GPRK7 at 500 nM related to control ULK1
Sequence of Rhodopsin kinase GRK7 (Homo sapiens) (Q8WTQ7 whole entry, looked up): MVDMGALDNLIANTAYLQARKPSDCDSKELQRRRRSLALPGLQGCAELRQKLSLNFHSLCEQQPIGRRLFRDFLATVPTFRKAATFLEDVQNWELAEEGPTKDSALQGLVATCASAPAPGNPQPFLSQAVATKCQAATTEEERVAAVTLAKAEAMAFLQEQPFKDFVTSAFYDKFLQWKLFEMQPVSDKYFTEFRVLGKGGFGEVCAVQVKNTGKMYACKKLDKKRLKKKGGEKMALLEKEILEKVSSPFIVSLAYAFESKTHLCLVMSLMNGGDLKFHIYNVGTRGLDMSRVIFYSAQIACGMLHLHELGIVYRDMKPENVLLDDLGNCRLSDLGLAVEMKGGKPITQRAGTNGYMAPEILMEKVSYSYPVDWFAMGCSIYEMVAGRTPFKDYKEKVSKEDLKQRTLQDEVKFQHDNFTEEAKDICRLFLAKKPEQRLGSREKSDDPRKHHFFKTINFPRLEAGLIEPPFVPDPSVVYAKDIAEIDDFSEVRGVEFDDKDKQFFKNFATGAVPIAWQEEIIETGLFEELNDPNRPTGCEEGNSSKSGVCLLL

Sequence of Serine/threonine-protein kinase SIK1 (Homo sapiens) (P57059 whole entry): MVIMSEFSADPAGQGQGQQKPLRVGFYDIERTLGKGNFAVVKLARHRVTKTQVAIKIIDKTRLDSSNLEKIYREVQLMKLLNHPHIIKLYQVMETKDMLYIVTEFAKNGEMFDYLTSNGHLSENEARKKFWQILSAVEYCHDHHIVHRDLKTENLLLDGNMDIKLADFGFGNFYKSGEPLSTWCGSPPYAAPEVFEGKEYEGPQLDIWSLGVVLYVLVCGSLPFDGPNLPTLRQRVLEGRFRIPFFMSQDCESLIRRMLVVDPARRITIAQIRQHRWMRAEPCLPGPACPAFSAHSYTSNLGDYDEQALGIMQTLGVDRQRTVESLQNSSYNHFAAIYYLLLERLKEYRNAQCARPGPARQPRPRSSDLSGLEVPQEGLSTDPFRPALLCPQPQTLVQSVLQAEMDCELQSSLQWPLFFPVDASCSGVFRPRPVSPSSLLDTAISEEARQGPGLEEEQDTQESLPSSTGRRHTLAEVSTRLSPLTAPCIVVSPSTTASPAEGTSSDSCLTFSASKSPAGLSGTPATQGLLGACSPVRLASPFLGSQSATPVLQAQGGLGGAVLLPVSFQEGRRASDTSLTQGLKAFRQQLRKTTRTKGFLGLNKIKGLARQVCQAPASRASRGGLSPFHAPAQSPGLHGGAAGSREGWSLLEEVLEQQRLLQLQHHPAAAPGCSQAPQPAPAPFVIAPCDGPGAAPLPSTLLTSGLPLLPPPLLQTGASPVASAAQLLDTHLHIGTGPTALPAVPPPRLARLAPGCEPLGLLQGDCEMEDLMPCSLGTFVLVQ
Sequence of Dual specificity protein kinase CLK4 (Homo sapiens) (Q9HAZ1 whole entry, looked up): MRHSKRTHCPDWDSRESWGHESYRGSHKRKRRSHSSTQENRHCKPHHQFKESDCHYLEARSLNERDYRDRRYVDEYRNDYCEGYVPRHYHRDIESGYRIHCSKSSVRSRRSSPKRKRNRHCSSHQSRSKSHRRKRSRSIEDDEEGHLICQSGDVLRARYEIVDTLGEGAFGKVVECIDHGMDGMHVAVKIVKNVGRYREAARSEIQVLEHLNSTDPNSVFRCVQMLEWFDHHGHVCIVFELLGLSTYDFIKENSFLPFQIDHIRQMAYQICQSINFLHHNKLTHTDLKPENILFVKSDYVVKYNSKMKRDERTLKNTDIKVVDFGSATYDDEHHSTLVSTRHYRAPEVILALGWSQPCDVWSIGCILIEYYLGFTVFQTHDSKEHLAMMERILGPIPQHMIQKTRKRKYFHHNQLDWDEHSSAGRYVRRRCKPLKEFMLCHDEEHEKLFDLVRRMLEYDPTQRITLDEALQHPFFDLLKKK
Sequence of Serine/threonine-protein kinase Nek6 (Homo sapiens) (Q9HC98 whole entry): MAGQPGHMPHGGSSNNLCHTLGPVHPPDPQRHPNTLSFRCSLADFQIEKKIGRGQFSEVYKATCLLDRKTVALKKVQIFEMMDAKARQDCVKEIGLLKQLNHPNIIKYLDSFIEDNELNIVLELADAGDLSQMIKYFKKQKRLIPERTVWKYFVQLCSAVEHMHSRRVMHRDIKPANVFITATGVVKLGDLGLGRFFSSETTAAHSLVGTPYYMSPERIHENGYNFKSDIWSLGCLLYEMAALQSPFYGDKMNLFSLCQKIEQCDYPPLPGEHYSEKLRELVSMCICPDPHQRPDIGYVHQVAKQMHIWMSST
Sequence of TGF-beta receptor type-2 (Homo sapiens) (P37173 whole entry): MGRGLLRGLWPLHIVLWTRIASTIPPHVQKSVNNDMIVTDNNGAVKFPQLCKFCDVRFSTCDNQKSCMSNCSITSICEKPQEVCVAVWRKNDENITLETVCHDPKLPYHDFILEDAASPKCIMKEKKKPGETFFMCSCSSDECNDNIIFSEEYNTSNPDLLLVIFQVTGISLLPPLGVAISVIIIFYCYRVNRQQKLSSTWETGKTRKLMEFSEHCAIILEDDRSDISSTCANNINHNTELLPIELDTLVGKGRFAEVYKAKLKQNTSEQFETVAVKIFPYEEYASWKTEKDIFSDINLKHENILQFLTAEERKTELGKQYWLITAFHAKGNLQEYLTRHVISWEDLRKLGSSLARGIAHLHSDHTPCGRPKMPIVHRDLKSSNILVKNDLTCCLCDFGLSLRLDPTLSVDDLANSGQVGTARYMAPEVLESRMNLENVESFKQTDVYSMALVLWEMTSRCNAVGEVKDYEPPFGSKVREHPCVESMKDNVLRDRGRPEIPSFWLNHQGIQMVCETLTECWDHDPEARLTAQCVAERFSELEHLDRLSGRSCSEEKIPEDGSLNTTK
Sequence of Dual specificity mitogen-activated protein kinase kinase 1 (Homo sapiens) (Q02750 whole entry): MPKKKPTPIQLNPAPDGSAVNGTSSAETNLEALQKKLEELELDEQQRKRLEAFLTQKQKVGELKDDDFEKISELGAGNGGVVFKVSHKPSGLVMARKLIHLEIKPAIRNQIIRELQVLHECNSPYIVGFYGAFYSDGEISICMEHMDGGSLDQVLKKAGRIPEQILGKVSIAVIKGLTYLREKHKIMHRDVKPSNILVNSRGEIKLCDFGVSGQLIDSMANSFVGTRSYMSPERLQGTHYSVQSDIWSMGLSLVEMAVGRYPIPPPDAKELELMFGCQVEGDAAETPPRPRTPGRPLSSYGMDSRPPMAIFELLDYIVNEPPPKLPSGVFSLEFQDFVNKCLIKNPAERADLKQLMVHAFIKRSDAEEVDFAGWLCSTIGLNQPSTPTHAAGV
Sequence of Wee1-like protein kinase 2 (Homo sapiens) (P0C1S8 whole entry, looked up): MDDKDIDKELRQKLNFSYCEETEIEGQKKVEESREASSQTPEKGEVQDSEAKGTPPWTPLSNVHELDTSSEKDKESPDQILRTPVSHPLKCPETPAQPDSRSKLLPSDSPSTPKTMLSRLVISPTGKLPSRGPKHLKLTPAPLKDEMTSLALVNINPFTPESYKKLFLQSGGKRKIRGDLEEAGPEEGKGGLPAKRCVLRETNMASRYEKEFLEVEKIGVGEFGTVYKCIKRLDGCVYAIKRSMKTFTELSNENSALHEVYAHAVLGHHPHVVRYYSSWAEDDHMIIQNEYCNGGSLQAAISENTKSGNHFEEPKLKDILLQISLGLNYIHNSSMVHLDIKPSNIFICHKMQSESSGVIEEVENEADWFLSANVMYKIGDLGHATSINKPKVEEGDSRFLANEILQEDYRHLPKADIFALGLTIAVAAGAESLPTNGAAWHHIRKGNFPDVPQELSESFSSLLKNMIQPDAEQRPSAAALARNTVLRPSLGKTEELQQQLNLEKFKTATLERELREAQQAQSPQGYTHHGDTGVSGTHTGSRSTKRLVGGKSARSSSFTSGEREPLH
Sequence of High affinity nerve growth factor receptor (Homo sapiens) (P04629 33-796 limits assumed): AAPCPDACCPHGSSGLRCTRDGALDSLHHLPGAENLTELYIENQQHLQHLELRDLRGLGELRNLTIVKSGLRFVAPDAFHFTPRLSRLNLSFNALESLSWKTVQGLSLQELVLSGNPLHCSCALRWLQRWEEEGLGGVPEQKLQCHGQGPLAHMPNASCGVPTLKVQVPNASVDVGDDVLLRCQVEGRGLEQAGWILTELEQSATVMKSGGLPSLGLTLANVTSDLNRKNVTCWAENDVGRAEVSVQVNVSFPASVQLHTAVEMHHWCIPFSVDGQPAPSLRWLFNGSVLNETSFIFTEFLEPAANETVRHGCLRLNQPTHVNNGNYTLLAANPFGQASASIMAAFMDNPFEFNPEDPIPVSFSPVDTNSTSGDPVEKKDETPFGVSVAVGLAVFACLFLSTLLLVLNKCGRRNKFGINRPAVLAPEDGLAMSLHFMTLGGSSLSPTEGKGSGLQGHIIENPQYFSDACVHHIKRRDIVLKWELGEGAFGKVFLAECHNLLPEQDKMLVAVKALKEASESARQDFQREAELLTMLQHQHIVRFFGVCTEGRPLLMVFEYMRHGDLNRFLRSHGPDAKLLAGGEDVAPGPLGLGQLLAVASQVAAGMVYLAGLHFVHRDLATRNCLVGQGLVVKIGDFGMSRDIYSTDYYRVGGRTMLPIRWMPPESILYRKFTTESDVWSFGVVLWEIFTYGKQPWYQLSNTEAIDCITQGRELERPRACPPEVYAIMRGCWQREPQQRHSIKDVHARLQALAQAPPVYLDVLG
Sequence of Interferon-induced, double-stranded RNA-activated protein kinase (Homo sapiens) (P19525 whole entry): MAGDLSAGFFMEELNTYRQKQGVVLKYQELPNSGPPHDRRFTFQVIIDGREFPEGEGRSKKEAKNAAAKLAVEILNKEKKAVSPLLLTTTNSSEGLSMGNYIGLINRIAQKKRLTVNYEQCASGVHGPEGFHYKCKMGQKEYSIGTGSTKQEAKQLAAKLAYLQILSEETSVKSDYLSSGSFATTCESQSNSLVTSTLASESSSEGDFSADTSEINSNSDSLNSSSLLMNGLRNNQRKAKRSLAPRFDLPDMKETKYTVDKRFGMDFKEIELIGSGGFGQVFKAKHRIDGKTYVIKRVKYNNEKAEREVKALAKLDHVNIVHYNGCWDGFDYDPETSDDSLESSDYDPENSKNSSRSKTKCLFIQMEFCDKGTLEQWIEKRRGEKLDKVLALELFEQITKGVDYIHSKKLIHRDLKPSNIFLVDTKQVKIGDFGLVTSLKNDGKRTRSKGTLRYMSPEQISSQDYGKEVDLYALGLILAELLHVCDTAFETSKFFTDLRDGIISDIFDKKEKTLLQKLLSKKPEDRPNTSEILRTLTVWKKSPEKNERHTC

Row | Compound | inhibition [1] | inhibition [2] | fold change (FC) [3] | fold change (FC) [4] | fold change (FC) [5] | fold change (FC) [6] | inhibition [7] | inhibition [8] | inhibition [9] | inhibition [10] | fold change (FC) [11] | fold change (FC) [12] | fold change (FC) [13]
1 | O=C(N[C@@H](C1CC1)C(F)(F)F)c1cc(-c2cnn3cc(-c4ccc(F)cc4)cnc23)cs1 | 52% | 0% | 0 | 0 | 0.27 | 0 |  |  |  |  |  |  | 
2 | CNC(=O)c1ccccc1Oc1nc(Nc2cc(OC)c(OC)c(OC)c2)ncc1Br |  |  |  |  |  |  | 4% | 2% | 2% | 0% | 0 | 0.09 | 0.14
